Measured values from PubChem BioAssay (NCI).
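Interpolation was linear, between the two tested concentrations surrounding the appropriate level; five concentrations were tested over 48 hours in 96-well plates. GI50 is the concentration that inhibits growth by half. At the TGI there is no net growth.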

What was measured:
Test in all cases: NCI-60 cell line screen, 48 h
OVCAR-4 ovarian = system: OVCAR-4 ovarian
UACC-257 melanoma = system: UACC-257 melanoma
UO-31 renal = system: UO-31 renal
KM20L2 colon = system: KM20L2 colon
DLD-1 colon = system: DLD-1 colon
LXFL 529 NSCLC = system: LXFL 529 NSCLC
DMS 114 small cell lung = system: DMS 114 small cell lung
HOP-18 NSCLC = system: HOP-18 NSCLC
DMS 273 small cell lung = system: DMS 273 small cell lung
SF-539 CNS = system: SF-539 CNS
SK-OV-3 ovarian = system: SK-OV-3 ovarian
MCF7 breast = system: MCF7 breast
PC-3 prostate = system: PC-3 prostate
SK-MEL-2 melanoma = system: SK-MEL-2 melanoma
MDA-MB-435 = system: MDA-MB-435
NCI/ADR-RES ovarian = system: NCI/ADR-RES ovarian
MDA-N = system: MDA-N

COc1ccc2c3ccc4c(c3n(C)c2c1)C(=O)c1ccccc1C4=O
TGI (OVCAR-4 ovarian): > 100 µM
TGI (UACC-257 melanoma): > 100 µM
TGI (UO-31 renal): > 100 µM
TGI (KM20L2 colon): > 100 µM
TGI (DLD-1 colon): > 100 µM
TGI (LXFL 529 NSCLC): > 100 µM
TGI (DMS 114 small cell lung): > 100 µM
TGI (HOP-18 NSCLC): > 100 µM
TGI (DMS 273 small cell lung): > 100 µM
TGI (SF-539 CNS): > 100 µM
TGI (SK-OV-3 ovarian): > 100 µM

CC1NC(/C(=C/c2ccccc2O)NC(=O)c2ccccc2)OC1=O (stereo not given)
TGI (MCF7 breast): > 50 µM
TGI (OVCAR-4 ovarian): > 50 µM
TGI (UACC-257 melanoma): > 50 µM
TGI (UO-31 renal): > 50 µM
TGI (PC-3 prostate): > 50 µM
TGI (SK-MEL-2 melanoma): > 50 µM
TGI (MDA-MB-435): > 50 µM
TGI (NCI/ADR-RES ovarian): > 50 µM
TGI (SF-539 CNS): 48 µM
TGI (SK-OV-3 ovarian): > 50 µM
TGI (MDA-N): > 50 µM

O=C(Nc1nc(C23CC4CC(CC(C4)C2)C3)cs1)c1cc2cc(Br)cc(Br)c2oc1=O
TGI (MCF7 breast): > 100 µM
TGI (OVCAR-4 ovarian): > 100 µM
TGI (UACC-257 melanoma): > 100 µM
TGI (UO-31 renal): > 100 µM
TGI (PC-3 prostate): > 100 µM
TGI (SK-MEL-2 melanoma): > 100 µM
TGI (MDA-MB-435): > 100 µM
TGI (NCI/ADR-RES ovarian): > 100 µM
TGI (SF-539 CNS): > 100 µM
TGI (SK-OV-3 ovarian): > 100 µM
TGI (MDA-N): > 100 µM

[N-]=[N+]=NC1C(Br)C(=O)NC(=O)N1[C@H]1C[C@H](O)[C@@H](CO)O1 (stereo not given in full)
TGI (OVCAR-4 ovarian): > 100 µM
TGI (UACC-257 melanoma): > 100 µM
TGI (UO-31 renal): > 100 µM
TGI (KM20L2 colon): > 100 µM
TGI (SK-MEL-2 melanoma): > 100 µM
TGI (DLD-1 colon): > 100 µM
TGI (LXFL 529 NSCLC): > 100 µM
GI50 (DMS 114 small cell lung): 90.9 µM
TGI (DMS 114 small cell lung): > 100 µM
TGI (DMS 273 small cell lung): > 100 µM
TGI (SF-539 CNS): > 100 µM
TGI (SK-OV-3 ovarian): > 100 µM

CCC1(N=[N+]=[N-])C(=O)Nc2cc(C)ccc2C1=O (stereo not given)
TGI (OVCAR-4 ovarian): > 100 µM
TGI (UACC-257 melanoma): > 100 µM
TGI (UO-31 renal): > 100 µM
TGI (KM20L2 colon): > 100 µM
TGI (SK-MEL-2 melanoma): > 100 µM
TGI (DLD-1 colon): > 100 µM
TGI (LXFL 529 NSCLC): > 100 µM
TGI (DMS 114 small cell lung): > 100 µM
TGI (HOP-18 NSCLC): > 100 µM
TGI (DMS 273 small cell lung): > 100 µM
TGI (SF-539 CNS): > 100 µM
TGI (SK-OV-3 ovarian): > 100 µM

O=C1/C(=C\c2cccc(Oc3ccccc3)c2)SC(c2ccccc2)N1c1ccc(Cl)cc1 (stereo not given)
TGI (MCF7 breast): > 100 µM
TGI (OVCAR-4 ovarian): > 100 µM
TGI (UACC-257 melanoma): > 100 µM
TGI (UO-31 renal): > 100 µM
TGI (PC-3 prostate): > 100 µM
TGI (SK-MEL-2 melanoma): > 100 µM
TGI (MDA-MB-435): > 64.3 µM
TGI (NCI/ADR-RES ovarian): > 100 µM
TGI (SF-539 CNS): 52.6 µM
TGI (SK-OV-3 ovarian): > 100 µM
TGI (MDA-N): > 87.9 µM

O=C(c1ccncc1)n1nc(-c2ccccc2)c(N=Nc2ccc([N+](=O)[O-])cc2)c1-c1ccccc1
TGI (OVCAR-4 ovarian): 28.2 µM
TGI (UACC-257 melanoma): > 100 µM
TGI (UO-31 renal): 86.2 µM
TGI (SK-MEL-2 melanoma): > 100 µM
TGI (DLD-1 colon): > 100 µM
TGI (LXFL 529 NSCLC): 25.7 µM
TGI (DMS 114 small cell lung): > 100 µM
TGI (DMS 273 small cell lung): > 100 µM
TGI (SF-539 CNS): > 100 µM
TGI (SK-OV-3 ovarian): > 100 µM

[N-]=[N+]=Nc1ccc2c(c1)Sc1ccccc1N2CCCCCl
TGI (MCF7 breast): > 100 µM
TGI (OVCAR-4 ovarian): > 100 µM
TGI (UACC-257 melanoma): > 100 µM
TGI (UO-31 renal): > 100 µM
TGI (PC-3 prostate): > 100 µM
TGI (SK-MEL-2 melanoma): 76.9 µM
TGI (MDA-MB-435): > 100 µM
TGI (NCI/ADR-RES ovarian): > 100 µM
TGI (SF-539 CNS): > 100 µM
TGI (SK-OV-3 ovarian): > 100 µM
TGI (MDA-N): > 100 µM

COC(=O)CC1C(=O)OCc2c1cc1n(c2=O)Cc2c-1nc1ccccc1c2OC (stereo not given)
TGI (OVCAR-4 ovarian): > 100 µM
TGI (UACC-257 melanoma): > 100 µM
TGI (UO-31 renal): > 100 µM
TGI (KM20L2 colon): > 100 µM
TGI (SK-MEL-2 melanoma): > 100 µM
TGI (LXFL 529 NSCLC): > 100 µM
TGI (DMS 114 small cell lung): > 100 µM
TGI (HOP-18 NSCLC): > 100 µM
TGI (DMS 273 small cell lung): > 100 µM
TGI (SK-OV-3 ovarian): > 100 µM

COC[n+]1cc2cc(OC)c(OC)cc2c2ccc3cc(OC)c(OC)cc3c21
TGI (OVCAR-4 ovarian): > 100 µM
TGI (UACC-257 melanoma): > 100 µM
TGI (UO-31 renal): > 100 µM
TGI (KM20L2 colon): > 100 µM
TGI (SK-MEL-2 melanoma): > 100 µM
TGI (DLD-1 colon): > 100 µM
TGI (LXFL 529 NSCLC): > 100 µM
TGI (DMS 114 small cell lung): > 100 µM
TGI (HOP-18 NSCLC): > 100 µM
TGI (SF-539 CNS): > 100 µM

CCOC(=O)c1ccc(C(=O)/C(C#N)=C2\CCCN2)[nH]1
TGI (MCF7 breast): > 100 µM
TGI (OVCAR-4 ovarian): > 100 µM
TGI (UACC-257 melanoma): > 100 µM
TGI (UO-31 renal): > 100 µM
TGI (PC-3 prostate): > 100 µM
TGI (SK-MEL-2 melanoma): > 100 µM
TGI (MDA-MB-435): > 100 µM
TGI (NCI/ADR-RES ovarian): > 100 µM
TGI (SF-539 CNS): > 100 µM
TGI (SK-OV-3 ovarian): > 100 µM
TGI (MDA-N): > 100 µM

C[Si](C)(C)OC1c2[nH]c3ccccc3c2CN2C(=O)CCC12 (stereo not given)
TGI (MCF7 breast): > 100 µM
TGI (OVCAR-4 ovarian): > 100 µM
TGI (UACC-257 melanoma): > 100 µM
TGI (UO-31 renal): > 100 µM
TGI (PC-3 prostate): > 100 µM
TGI (SK-MEL-2 melanoma): > 100 µM
TGI (MDA-MB-435): > 100 µM
TGI (NCI/ADR-RES ovarian): > 100 µM
TGI (SF-539 CNS): > 100 µM
TGI (SK-OV-3 ovarian): > 100 µM
TGI (MDA-N): > 100 µM

COC(=O)c1c(C(=O)OC)c2cc(C(=O)c3ccccc3)ccn2c1Cl
TGI (OVCAR-4 ovarian): > 100 µM
TGI (UO-31 renal): 89.8 µM
TGI (KM20L2 colon): > 100 µM
TGI (SK-MEL-2 melanoma): > 100 µM
TGI (LXFL 529 NSCLC): > 100 µM
TGI (DMS 114 small cell lung): 89.1 µM
TGI (DMS 273 small cell lung): 90.4 µM
TGI (SF-539 CNS): > 100 µM

CC1(C)C(=O)N=C(N)N1C(=O)OCc1ccccc1
TGI (MCF7 breast): > 100 µM
TGI (OVCAR-4 ovarian): > 100 µM
TGI (UACC-257 melanoma): > 100 µM
TGI (UO-31 renal): > 100 µM
TGI (PC-3 prostate): > 100 µM
TGI (SK-MEL-2 melanoma): > 100 µM
TGI (MDA-MB-435): > 100 µM
TGI (NCI/ADR-RES ovarian): > 100 µM
TGI (SF-539 CNS): > 100 µM
TGI (SK-OV-3 ovarian): > 100 µM
TGI (MDA-N): > 100 µM

CC1=NN(C(=O)Cc2ccccc2)C(=O)/C1=C\C=C\c1ccccc1
TGI (OVCAR-4 ovarian): > 100 µM
TGI (UACC-257 melanoma): > 100 µM
TGI (UO-31 renal): > 100 µM
TGI (SK-MEL-2 melanoma): > 100 µM
TGI (DLD-1 colon): > 100 µM
TGI (HOP-18 NSCLC): > 100 µM
TGI (DMS 273 small cell lung): > 100 µM
TGI (SF-539 CNS): > 100 µM

COc1ccc(C2C(Cl)C(=O)N2NC(=O)Cc2ccccc2)cc1 (stereo not given)
TGI (OVCAR-4 ovarian): > 100 µM
TGI (UACC-257 melanoma): > 100 µM
TGI (UO-31 renal): > 100 µM
TGI (KM20L2 colon): > 100 µM
TGI (SK-MEL-2 melanoma): > 100 µM
TGI (DLD-1 colon): > 100 µM
TGI (LXFL 529 NSCLC): > 100 µM
TGI (HOP-18 NSCLC): > 100 µM
TGI (DMS 273 small cell lung): > 100 µM
TGI (SK-OV-3 ovarian): > 100 µM

COc1cc(-c2coc3c(OC)c(OC4OC(CO)C(O)C(O)C4O)c(OC)cc3c2=O)cc(OC)c1C (stereo not given)
TGI (MCF7 breast): 25.8 µM
TGI (OVCAR-4 ovarian): 63.2 µM
TGI (UACC-257 melanoma): > 31.6 µM
TGI (UO-31 renal): 21 µM
TGI (PC-3 prostate): > 54.3 µM
TGI (SK-MEL-2 melanoma): 41.1 µM
TGI (MDA-MB-435): 17.9 µM
TGI (NCI/ADR-RES ovarian): 27.4 µM
TGI (SF-539 CNS): > 29 µM
TGI (SK-OV-3 ovarian): 23.4 µM
TGI (MDA-N): 46.7 µM

CC1=C(OC2OC(CO)C(O)C(O)C2O)C(=O)C[C@H]2C1=CC[C@@H]1[C@@]2(C)C(=O)C[C@]2(C)[C@@H]([C@@](C)(O)C(=O)CCC(C)(C)O)[C@H](O)C[C@@]12C (stereo not given in full)
TGI (MCF7 breast): > 100 µM
TGI (OVCAR-4 ovarian): > 100 µM
TGI (UACC-257 melanoma): > 100 µM
TGI (UO-31 renal): > 100 µM
TGI (PC-3 prostate): > 100 µM
TGI (SK-MEL-2 melanoma): > 100 µM
TGI (MDA-MB-435): > 100 µM
TGI (NCI/ADR-RES ovarian): > 100 µM
TGI (SF-539 CNS): > 100 µM
TGI (SK-OV-3 ovarian): > 100 µM
TGI (MDA-N): > 100 µM
